Measured values taken from US20170202838A1, “IMMUNOMODULATOR” (TAIHO PHARMACEUTICAL CO., LTD., priority 2015, published 2017).

Columns and labels:
[1] = test system: MC38; test: Tumor volume of subcutaneous mouse colon cancer cell line, in vivo model (Example 9); details: Compound (I) 50 mg/kg, compared with control group (FIG. 11)
Experimental: A cell suspension of the mouse colon cancer cell line MC38 was prepared with the use of PBS(-) and 50% Matrigel, and the cell suspension was injected subcutaneously into mice at 1×10^6 cells/mouse. The mice were divided into groups when the average subcutaneous tumor volume reached approximately 50 mm^3, Compound (I) was administered at 50 mg/kg or the anti-PD-1 antibody was administered at 100 μg/mouse, and the tumor volume was measured with the elapse of time. The tumor volume was determined on the basis of the longer diameter and the shorter diameter of the tumor measured percutaneously in accordance with Equation A shown below.
Tumor volume (mm^3)=longer diameter (mm)×shorter diameter (mm)^2/2 (Equation A)

[2] = test system: K1735M2; test: In vitro growth of mouse melanoma cell line K1735M2, CellTiter-Glo2.0 (Reference Example 1); format: cell-based; details: K1735M2, 3 days culture
Experimental: The mouse melanoma cell lines B16F10 and K1735M2 and the mouse colon cancer cell line MC38 were seeded in a 96-well plate at 3×10^3 cells/well. Compound (I) or the EGFR tyrosine kinase inhibitor (i.e., Erlotinib, Afatinib, AZD9291, or Co1686 (Rociletinib)) that had been diluted to the given concentration was added 24 hours later. Thereafter, culture was conducted for 3 days, and the number of cells was determined using CellTiter-Glo2.0 (Promega, G9243).

[3] = test system: human peripheral blood mononuclear cells; test: Induction of IL-2 production of PHA-M-stimulated human peripheral blood mononuclear cells (Example 2); format: cell-based; details: PHA-M 5 μg/ml, 3 days, ELISA (FIG. 3)
Experimental: Human peripheral blood mononuclear cells were introduced into a human complete medium (i.e., RPMI-1640 supplemented with 10% heat-inactivated FBS, 100 U/ml penicillin, and 100 μg/ml streptomycin) to prepare a cell suspension (1×10^6 cells/ml). Phytohemagglutinin M (PHA-M) was added thereto to the final concentration of 5 μg/ml, and Compound (I) or an EGFR tyrosine kinase inhibitor (AZD9291) was further added thereto to each final concentration. This culture solution was seeded in a 96-well plate at 200 μl/well and then cultured in an incubator at 37° C. in the presence of 5% CO2 for 3 days. The culture supernatant was recovered, and the concentration of IL-2 therein was measured via ELISA using the anti-hIL-2 antibody.

[4] = test system: mouse spleen cells; test: Excitation of T cell growth, CFSE flow cytometry of CD4- and CD8-positive spleen cells (Example 4); format: cell-based; details: anti-CD3 1 μg/ml and anti-CD28 1 μg/ml, 3 days; comparators at 0.1 μM (FIG. 5)
Experimental: The mouse spleen was extracted, grinded with glass slides with frosted areas, and then subjected to hemolysis, so as to obtain spleen cells. The spleen cells were suspended in 5 ml of a staining buffer (0.5% BSA, 2 mM EDTA, PBS(-)), and the cells were stained with 5 μM CFSE (5-carboxyfluorescein succinimidyl ester). Thereafter, the stained cells were washed with an ice-cooled complete medium (RPMI-1640). The CFSE-stained spleen cells were introduced into a complete medium (i.e., RPMI-1640 supplemented with 10% heat-inactivated FBS, 100 U/ml penicillin, 100 μg/ml streptomycin, and 55 μM 2-mercaptoethanol) to prepare a cell suspension (1×10^6 cells/ml), the anti-CD3 antibody and the anti-CD28 antibody were added at 1 μg/ml and 1 μg/ml, respectively, and Compound (I) adjusted to various concentrations or the EGFR tyrosine kinase inhibitor (i.e., AZD09291, Erlotinib, Co1686 (Rociletinib), Ibrutinib, Sunitinib, or Dasatinib) was added at 0.1 μM. […] These culture solutions were seeded in a 96-well plate at 200 μl/well and then cultured in an incubator at 37° C. in the presence of 5% CO2 for 3 days. The cells were recovered and stained with the anti-CD4 antibody and the anti-CD8 antibody. The amounts of CFSE in CD4- and CD8-positive cells were analyzed via flow cytometry.
Once CFSE is incorporated into a cell, the amount thereof is kept constant in the cell. Since the amount of CFSE per cell decreases by half upon cell division, according to flow cytometric analysis, the intensity of CFSE staining is attenuated and is shifted toward left (i.e., lower level) in the chart, as cell division proceeds. […] In the case of the samples to which other types of EGFR tyrosine kinase inhibitors had been added, in contrast, no such activity for enhancing the cell growth was observed.

[5] = test system: colon26; test: Analysis of immunocytes in spleen cells in mouse model subcutaneously implanted with colon cancer cell line (Example 6); format: in vivo; details: Compound (I) 50 mg/kg and/or anti-PD-1 antibody 100 μg/mouse
Experimental: A cell suspension of the mouse colon cancer cell line (colon26) was prepared with the use of PBS(-) and 50% Matrigel, and the cell suspension was implanted into the syngeneic BALB/c mice via subcutaneous injection at 2×10^3 cells/mouse. The mice were divided into groups based on their body weights 1 day after implantation, and Compound (I) was administered thereto at 50 mg/kg and/or the anti-PD-1 antibody was administered thereto at 100 μg/mouse. A control group to which neither Compound (I) nor the anti-PD-1 antibody had been administered was also prepared. The spleen cells were sampled 21 days after implantation and analyzed via flow cytometry with the use of antibodies each reacting with a relevant immunocyte surface marker.

[6] = test system: B16F10; test: Pulmonary metastatic nodules after intravenous injection of mouse melanoma cell line, in vivo model (Example 8); details: oral 12.5 mg/kg or 50 mg/kg, 14 days after implantation, compared with control group (FIG. 10)
Experimental: A cell suspension of the mouse melanoma cell line B16F10 was prepared with the use of PBS(-), and the cell suspension was injected intravenously into the mouse caudal portion at 5×10^5 cells/mouse. Compound (I) was administered orally to the mouse model at 12.5 mg/kg or 50 mg/kg on the previous day of B16F10 implantation. The number of pulmonary metastatic nodules was evaluated 14 days after implantation (i.e., 15 days after drug administration). […] On the basis of the results above and the results of Reference Example 1 such that the tumor growth inhibitory effects were not observed in the in vitro model, it was deduced that the decreased number of pulmonary metastatic nodules was achieved by the immunomodulation activity of Compound (I).

[7] = test system: K1735M2; test: Tumor volume of subcutaneous mouse melanoma cell line, potentiation of anti-PD-1 or anti-PD-L1 antibody, in vivo model (Example 10); details: Compound (I) 50 mg/kg, antibody 100 μg/mouse, alone or in combination (FIG. 12)
Experimental: A cell suspension of the mouse melanoma cell line K1735M2 was prepared with the use of PBS(-) and 50% Matrigel, and the cell suspension was injected subcutaneously into mice at 1×10^6 cells/mouse. The mice were divided into groups based on their body weights 1 day after implantation, Compound (I) (50 mg/kg) or the anti-PD-1 antibody or anti-PD-L1 antibody (100 μg/mouse) was administered thereto alone or either the anti-PD-1 antibody or the anti-PD-L1 antibody was administered in combination with Compound (I), and the tumor volume was measured with the elapse of time. The tumor volume was determined on the basis of the longer diameter and the shorter diameter of the tumor measured percutaneously in accordance with Equation A shown above.

[8] = 21 days after implantation (FIG. 7)
[9] = 21 days after implantation, compared with control group (FIG. 8)

Compound: C=CC(=O)N[C@H]1CCc2c(-c3cnc4ccccc4c3)c3c(N)ncnc3n2C1 [Compound (I), (S)—N-(4-amino-5-(quinolin-3-yl)-6,7,8,9-tetrahydropyrimido[5,4-b]indolizin-8-yl)acrylamide]
- extent of tumor growth inhibition (tumor volume) [1]: greater
- suppression of cell growth (number of cells) [2]: did not suppress the growth of any cells
- concentration of IL-2 produced by human peripheral blood mononuclear cells in the culture supernatant [3]: induced IL-2 production
- amount of CFSE per CD4-positive cell (cell growth) [4]: decreases
- amount of CFSE per CD8-positive cell (cell growth) [4]: decreases
- relative number of CD4-positive and CD69-positive cells in spleen cells [5, 8]: greater than those in the control group
- relative number of CD4-positive, CD44-positive, and CD62L-negative cells in spleen cells [5, 8]: greater than those in the control group
- CD44 expression level in CD4-positive cells (MFI) [5, 9]: increased
- CD62L expression level in CD4-positive cells (MFI) [5, 9]: decreased
- number of pulmonary metastatic nodules [6]: decreased in a dose-dependent manner
- extent of tumor growth inhibition (tumor volume) [7]: not sufficient
